Measurements published in patent US20190055563A1, “POLYMERASE Q AS A TARGET IN HR-DEFICIENT CANCERS” (DANA-FARBER CANCER INSTITUTE, INC., priority 2015, published 2019).
Blank lines part the entries; values can stand above or below the molecule they belong to.

Tests used:
A2780 cells = assay: 3-day survival assay with POLQ inhibition; format: cell-based, human; settings: 3 days of continuous exposure to ATM inhibitor
Method: (§1) For assessing cellular cytotoxicity, cells were seeded into 96-well plates at a density of 1000 cells/well. Cytotoxic drugs were serially diluted in media and added to the wells. At 72 hours, CellTiter-Glo reagent (Promega) was added to the wells and the plates were scanned using a luminescence microplate reader. Survival at each drug concentration was plotted as a percentage of the survival in drug-free media. Each data point on the graph represents the average of three measurements, and the error bars represent the standard deviation. For clonogenic survival, 1000 cells/well were seeded into six-well plates and treated with cytotoxic drugs the next day. For MMC and PARPi, cells were treated continuously with indicated drug concentrations. For CDDP, cells were treated for 24 hours and cultured for 14 days in drug-free media. Colony formation was scored 14 days after treatment using 0.5% (w/v) crystal violet in methanol. Survival curves were expressed as a percentage ±s.e.m. over three independent experiments of colonies formed relative to the DMSO-treated control.

[1] = biological target: recombinant human GST-RAD51 (UniProt Q06609)
293T cells = assay: 3-day survival assay with POLQ siRNA; format: cell-based, human
Method: as §1

A2780-shFANCD2 cells = assay: Clonogenic survival of HR-deficient cells with POLQ depletion; format: cell-based, human; settings: A2780-shFANCD2 with shRNA targeting POLQ
Method: as §1

[2] = biological target: T1, Flag-tagged POLQ-1633-Cter (human, UniProt O75417 1633-2590); assay: anti-Flag co-immunoprecipitation from HeLa cells, immunoblot
T1 construct: range 1633-Cter; Stably expressed in HeLa cells; not shown: Flag tag
T1 sequence (looked up): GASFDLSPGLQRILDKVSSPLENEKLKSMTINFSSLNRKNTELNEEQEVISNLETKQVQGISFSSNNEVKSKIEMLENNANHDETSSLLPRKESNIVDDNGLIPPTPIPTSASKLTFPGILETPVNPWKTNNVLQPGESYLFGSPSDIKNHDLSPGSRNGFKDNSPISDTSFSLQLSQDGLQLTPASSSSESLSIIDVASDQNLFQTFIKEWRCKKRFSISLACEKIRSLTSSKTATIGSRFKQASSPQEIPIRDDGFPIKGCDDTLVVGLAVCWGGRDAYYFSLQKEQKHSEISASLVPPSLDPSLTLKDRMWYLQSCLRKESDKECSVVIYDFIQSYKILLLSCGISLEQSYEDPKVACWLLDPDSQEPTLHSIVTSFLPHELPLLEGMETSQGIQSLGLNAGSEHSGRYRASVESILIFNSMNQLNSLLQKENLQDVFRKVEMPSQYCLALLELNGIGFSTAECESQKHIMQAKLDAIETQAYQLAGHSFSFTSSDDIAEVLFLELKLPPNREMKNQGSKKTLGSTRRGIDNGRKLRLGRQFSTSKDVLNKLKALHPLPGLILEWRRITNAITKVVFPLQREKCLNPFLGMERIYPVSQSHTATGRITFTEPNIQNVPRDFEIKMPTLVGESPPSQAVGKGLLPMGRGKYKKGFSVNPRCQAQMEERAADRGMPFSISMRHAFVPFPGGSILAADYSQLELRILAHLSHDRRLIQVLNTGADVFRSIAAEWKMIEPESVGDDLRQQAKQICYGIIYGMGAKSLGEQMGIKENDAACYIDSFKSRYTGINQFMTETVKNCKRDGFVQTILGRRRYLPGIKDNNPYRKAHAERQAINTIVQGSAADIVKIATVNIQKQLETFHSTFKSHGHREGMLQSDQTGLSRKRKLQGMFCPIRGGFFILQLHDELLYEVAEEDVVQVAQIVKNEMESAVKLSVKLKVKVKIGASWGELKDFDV

Molecule: O=c1cc(-c2cccc3c2Sc2ccccc2S3)oc(N2CCOCC2)c1 [Ku55933]
survival of A2780 cells, effect of POLQ inhibition (A2780 cells): reduces the survival

Molecule: purified recombinant POLQ fragment ΔPol2 (amino acids 1 to 1000), wild-type
RAD51-ssDNA nucleofilament assembly [1]: RAD51-ssDNA assembly was reduced by wild-type ΔPol2

Molecule: CO[C@@]12[C@H](COC(N)=O)C3=C(C(=O)C(C)=C(N)C3=O)N1C[C@@H]1N[C@@H]12 [MMC, Mitomycin C]
cellular sensitivity to drug after depletion of POLQ (293T cells): hypersensitivity
survival of HR-deficient cells exposed to drug, effect of POLQ depletion (A2780-shFANCD2 cells): reduced the survival

Molecule: N.N.[Cl][Pt][Cl] [CDDP, cis-diamminedichloroplatinum(II)]
survival of HR-deficient cells exposed to drug, effect of POLQ depletion (A2780-shFANCD2 cells): reduced the survival

binding result [2]: no binding
B1: endogenous RAD51 (other, UniProt Q06609 2-339, looked up)
chain: AMQMQLEANADTSVEEESFGPQPISRLEQCGINANDVKKLEEAGFHTVEAVAYAPKKELINIKGISEAKADKILAEAAKLVPMGFTTATEFHQRRSEIIQITTGSKELDKLLQGGIETGSITEMFGEFRTGKTQICHTLAVTCQLPIDRGGGEGKAMYIDTEGTFRPERLLAVAERYGLSGSDVLDNVAYARAFNTDHQTQLLYQASAMMVESRYALLIVDSATALYRTDYSGRGELSARQMHLARFLRMLLRLADEFGVAVVITNQVVAQVDGAAMFAADPKKPIGGNIIAHASTTRLYLRKGRGETRICKIYDSPCLPEAEAMFAINADGVGDAKD
notes: Endogenous protein in cell lysates
